Values quoted from earlier work, collected in patent US7756644B2, “System and method for automated selection of T-cell epitopes” (priority 2005, dated 2010).

Test system: memory T-cells isolated from HLA-B7-positive EBV-seropositive individuals
Conditions: PNAS 1999

Sequence | recognition by memory T-cells / immunogenicity
QPRAPIRPI (EBNA 3C.881 peptide from Epstein-Barr virus) | is not
RPPIFIRRL [EBNA 3A.379] | recognized
